Assays:
p97 = p97 (Homo sapiens, UniProt P55072); assay: p97 ADP Glo ATPase biochemical assay; conditions: 20 nM p97, 20 uM ATP, 37 deg C, 15 min; read-out: 97 ADP Glo Assay: IC50
Description: The ATPase assay is performed according the following protocol: Purified enzyme (20 nM p97), substrate (20 μM ATP) and a dose titration of compounds are mixed in buffer (50 mM TRIS pH 7.5, 20 mM MgCl2, 0.02% TX-100, 1 mM DTT, 0.2% (v/v) glycerol) and incubated at 37° C. for 15 minutes. The reaction is terminated and the level of product generated is measured using the ADP Glo Assay Kit (Promega, Madison Wis.). Plotting product generated versus compound concentration and using a four-parameter fit model generates an IC50 value for each compounds.
The p97 assay is an initial screening assay used to determine inhibitory activity of the compounds of the invention against the p97 complex. As discussed above, inhibition of activity of the p97 proteosome complex can enable apoptosis and cause elimination of neoplastic cells (cancer cells). The method follows that of Christianson in Nat. Cell Biol., (2011) 14:93.
Assay Buffer is a mixture of 50 mM TRIS pH 7.5, 20 mM MgCl2, 0.02% TX-100, 1 mM DTT and 0.2% (v/v) Glycerol. The well plate is Platetype: Corning 3674, 384 w plate. The identification kit is an ADP glo kit (Promega): stop buffer, detection reagent.
Serial dilute compound in DMSO in a 1:3.33-fold 10 point serial dilution.
in each well of 384 w plate add the following reagents:
0.5 μL compound serial diluted in DMSO (Final Conc. 10%)
2 μL ATP (Final Conc.=20 uM, diluted in assay buffer)
2.5 μL p97 (Final Conc.=20 nM, diluted in assay buffer)
Incubate at 37 deg C. for 15 min.
Add 5μ of stop buffer, incubate at RT for 40 min.
Add 10 μL of detection reagent, incubate at RT for 30 min.
Read luminescence on Envision plate reader.
Normalize luminescence data using no enzyme (full inhibition) and no compound (no inhibition) controls. Plot normalized luminescence data against log-transformed concentration values and fit to a sigmoidal curve to determine IC50 values (done in Collaborative Drug Discovery software).

A549 cells = assay: A549 CellTitre Glo viability assay; assay type: cell-based; conditions: Homo sapiens, 72 hr incubation
From the text: Anti-tumor effects are monitored in cultured cancer cells after several days of compound treatment. The cell titer glo assay (Promega) measures the amount of ATP present as a proxy for cellular viability. Cellular counting is done using high-content microscopy followed by image analysis. A hanging drop 3D-culture system (3D Biomatrix) is used followed by cell titer glo to measure growth in a tumor-like environment.
The cellular assay provides information about the anti-neoplastic activity of the compounds of the invention. The compounds are tested against cultured cancer cells to determine whether or not the compounds of the invention are capable of intersecting with cancer cells to minimize or eliminate such cells. The assay involves establishing colonies of such cells and then treating them with the test compound under specified conditions and analysis regima to determine results.
(§1) Plate 25 μL of A549 cells in every well of 384-well plate using multidrop. • Two (2) black plates for IF at 2500 cells/well • Let plate sit at room temp for 10-15 minutes prior to putting in incubator to allow cells to stick in middle of plate. • One (1) white plate for viability at 500 cells/well.
(§2) Treat Cells: • Serial dilute compounds with a 10 point 2-fold serial dilution in DMSO to make 250× stock compound solution • Dilute compounds 1:125 in cell culture media to make a 2× solution Add 25 μL of dilution compounds to cell plates in well duplicates
Put cells back in incubator (6 hr incubation for black plates, 72 hr incubation for white plates).
Thaw an aliquot of frozen cell titer glo (Promega G7572) at room temperature.
Add 45 mL of NaCl/PBS solution to 5 ml of cell titer glo (10×).
Remove white plates from incubator, leave at room temp for 30 minutes.
Add 25 μL of diluted cell titer glo to each well.
Shake plate for >1 minute.
Incubate plate for >5 minutes to stabilize luminescence.
Read luminescence on plate reader

K48-Ub in A549 cells = assay: A549 K48 cell intensity (K48 poly-ubiquitin immunofluorescence); assay type: cell-based; conditions: Homo sapiens, 6 hr incubation
Description: Image-analysis is used to generate quantitative data from these assays that can be fit to a four-parameter sigmoid curve to derive IC50 values. Substrates of the ubiquitin-proteasome system, such as p53, are monitored after tumor cell lines are incubated with compounds for several hours. Accumulation of these proteins indicates an inhibition of proteasome-mediated degradation. Accumulation of lysine-48 chain linkage of poly-ubiquitin is also monitored by immunofluorescence as an indicator of ubiquitin-proteasome system inhibition. Both LC3 and SQSTM1 are mediators of autophagy. The localization and amounts of these proteins are monitored by immunofluorescence and report on the activity and inhibition of autophagy in response to p97 inhibition.
as §1
as §2, with “duplicates Put cells back in incubator (6 hr incubation for black plates, 72 hr incubation for white plates).” for “duplicates”
Incubate cells in black plates with compound at 37 deg C. for 6 hrs. add 15 μL of 16% Paraformaldehyde (PFA) directly into media of each well, • incubate at room temp for 5 min, flick plate and wash in 50 µL of PBS block in 50 μL of Blocking Buffer for 30 minutes (can go up to several hours) • Blocking buffer: 1×PBS, 1% BSA, 0.3% Triton-X100, Hoechst (1:10,000) incubate in 25 μL of primary antibody in blocking buffer at 4 deg C. over night […]
Secondary Antibodies: • AlexaFluor488 Goat anti-Rabbit 1:2,000 (Life Tech A11008) • AlexaFluor555 Goat anti-Mouse 1:2,000 (Life Tech A21422) wash black plates 3× in 50 μL PBS (˜5 min each) • incubate in 25 μL of secondary antibody (1:2,000) in blocking buffer for 1-2 hrs at room temp (alexafluor488-anti-Rabbit/alexafluor555-anti-Mouse) Image plates in high content microscope with 405 nm, 488 nm and 555 nm filters Data Analysis: • Nuclear counts and cellular intensities of each markers are measured using Hoechst as a nuclear marker with an automated image analysis protocol using Matlab software (Math Works)

Caco-2 cell monolayer = conditions: pH 7.4, range over 12 inter-day experiments

p97, sequence (P55072 whole entry): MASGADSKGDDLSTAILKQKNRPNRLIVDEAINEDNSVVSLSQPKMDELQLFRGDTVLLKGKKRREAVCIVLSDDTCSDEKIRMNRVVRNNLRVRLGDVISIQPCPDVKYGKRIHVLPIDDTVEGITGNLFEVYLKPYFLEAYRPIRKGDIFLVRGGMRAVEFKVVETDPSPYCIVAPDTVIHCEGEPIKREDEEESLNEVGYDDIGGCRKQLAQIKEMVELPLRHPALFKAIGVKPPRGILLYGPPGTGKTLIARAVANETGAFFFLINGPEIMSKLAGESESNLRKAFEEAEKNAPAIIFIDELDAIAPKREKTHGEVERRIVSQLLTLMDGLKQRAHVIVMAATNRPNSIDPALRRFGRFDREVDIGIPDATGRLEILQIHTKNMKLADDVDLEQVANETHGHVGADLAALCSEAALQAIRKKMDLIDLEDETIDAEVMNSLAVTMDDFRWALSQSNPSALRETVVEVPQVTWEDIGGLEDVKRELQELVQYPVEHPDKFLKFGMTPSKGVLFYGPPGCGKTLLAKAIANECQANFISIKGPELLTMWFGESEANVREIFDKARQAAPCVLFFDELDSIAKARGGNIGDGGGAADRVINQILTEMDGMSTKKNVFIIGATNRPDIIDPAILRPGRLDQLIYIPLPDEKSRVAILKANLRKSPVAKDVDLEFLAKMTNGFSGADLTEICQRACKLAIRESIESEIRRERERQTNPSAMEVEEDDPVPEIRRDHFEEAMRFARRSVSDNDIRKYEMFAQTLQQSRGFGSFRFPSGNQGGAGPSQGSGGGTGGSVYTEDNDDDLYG

SMILES	IC50 (p97)	IC50 (A549 cells)	IC50 (K48-Ub in A549 cells)	Peff in pH 7.4 Caco-2, A B, Range (Caco-2 cell monolayer; A to B)	Peff in pH 7.4 Caco-2, B A, Range (Caco-2 cell monolayer; B to A)
Cc1cc2c(C(N)=O)cccc2n1-c1nc(NCc2ccccc2)c2c(n1)C1CCCCN1CC2 (centres unmarked) [Compound 001, 1-(4-(benzylamino)-6,8,9,10,11,11a-hexahydro-5H-pyrimido[4,5-a]quinolizin-2-yl)-2-methyl-1H-indole-4-carboxamide]	0.016 µM	1.34 µM	0.736 µM		
Cc1cc2c(C(N)=O)cccc2n1-c1nc(NCc2ccccc2)c2c(n1)C1CCCN1CC2 (centres unmarked) [Compound 002, 1-(4-(benzylamino)-5,6,8,9,10,10a-hexahydropyrimido[5,4-g]indolizin-2-yl)-2-methyl-1H-indole-4-carboxamide]	0.015 µM	2.69 µM	6.62 µM		
Cc1cc2c(C(N)=O)cccc2n1-c1nc2c(c(NCc3ccccc3)n1)CN1CCCCC1C2 (centres unmarked) [Compound 003, 1-(4-(benzylamino)-7,8,9,10,10a,11-hexahydro-5H-pyrimido[4,5-b]quinolizin-2-yl)-2-methyl-1H-indole-4-carboxamide]	0.025 µM	2.34 µM	0.642 µM		
Cc1cc2c(C(N)=O)cccc2n1-c1nc2c(c(NCc3ccccc3)n1)CN1CCCC1C2 (centres unmarked) [Compound 004, 1-[4-(Benzylamino)-5,7,8,9,9a,10-hexahydropyrimido[5,4-f]indolizin-2-yl]-2-methyl-indole-4-carboxamide]	0.019 µM	1.12 µM	0.273 µM		
CC(C)NCC(O)COc1cccc2ccccc12 (centres unmarked) [Propranolol]				18.50-36.80 x E−6 cm/sec	16.30-31.40 x E−6 cm/sec
